# Data as given in ChEMBL document CHEMBL1201862, “PubChem BioAssay data set” (2004).
# Activity calls are given as the source filed them.
# Tests used:
# HT-1080 = assay: HT1080 cell viability loss – fluorescence readout (AID 620); type: functional, cell-based; conditions: Homo sapiens
# [1] = target: T1, Luciferin 4-monooxygenase (Photinus pyralis, UniProt P08659); assay: Counter Screen for Luciferase-based Assay Positives. [Related pubchem assays: 620, 618, 411 ]
# [2] = Trypanosoma cruzi growth suppression in host cells – NIH3T3 host cells, beta-gal luminescence, confirmation (AID 2044); type: functional, cell-based;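 further: intracellular parasites grown in NIH/3T3 mouse fibroblasts as host cells; luminescent beta-galactosidase reporter signal from transgenic T. cruzi replicating inside host cells; inhibitors lower the luminescence signal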
# cells [3] = type: functional, cell-based
# INS1 = assay: INS-1E survival protection against cytokine death – cell-based, luminescence, retest, dose response (AID 449756); type: functional; conditions: Rattus norvegicus;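 further: cell death triggered by IL-1 beta plus TNF-alpha plus IFN-gamma mixture; protective hits raise ATP signal compared with cytokine alone wells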
# cells [4] = type: functional, cell-based; remark: listed apart in the source
# [5] = target: T2, Microphthalmia-associated transcription factor (Homo sapiens, UniProt O75030); assay: reducers of TRPM1 reporter luminescence, concentration series – cell-based, SK-MEL-5, cherry-picked, set 3, MITF inhibitor project, dose response (AID 493073); type: functional;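 further: SK-MEL-5 melanoma cells with luciferase driven by the MITF target TRPM1 promoter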
# T2 sequence (O75030 whole entry): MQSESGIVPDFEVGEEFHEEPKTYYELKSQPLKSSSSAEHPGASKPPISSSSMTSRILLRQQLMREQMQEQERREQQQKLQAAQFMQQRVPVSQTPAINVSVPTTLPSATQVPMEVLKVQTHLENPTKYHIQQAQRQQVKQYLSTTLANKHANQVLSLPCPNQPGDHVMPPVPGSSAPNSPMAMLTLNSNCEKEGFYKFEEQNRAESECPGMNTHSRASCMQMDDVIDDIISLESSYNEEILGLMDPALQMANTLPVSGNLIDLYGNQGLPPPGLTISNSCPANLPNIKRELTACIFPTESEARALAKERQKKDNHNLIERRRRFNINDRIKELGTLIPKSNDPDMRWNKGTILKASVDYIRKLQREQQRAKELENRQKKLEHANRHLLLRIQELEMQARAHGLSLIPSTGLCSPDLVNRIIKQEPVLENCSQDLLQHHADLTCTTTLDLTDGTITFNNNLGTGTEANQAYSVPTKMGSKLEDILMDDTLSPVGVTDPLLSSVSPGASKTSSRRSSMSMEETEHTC
# Streptococcus = assay: GAS UMAA2166 growth inhibition – luminescence, BacTiterGlo, counter-screen for streptokinase expression inhibitor project, dose response (AID 1915); type: functional, organism-based;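 further: potency for reduction of bacterial viability or growth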
# [6] = NIH3T3 cell viability loss – ATP luminescence, mouse fibroblasts, counter-screen, dose response (AID 2010); type: functional, cell-based;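 further: cells exposed to compound for about 90 hours before reading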
# [7] = Luminescence-based counterscreen assay for KLF5 inhibitors: dose response cell-based high throughput screening assay to identify cytotoxic compounds using the IEC-6 intestinal epithelial cell line. [Related pubchem assays: 1700 (Primary screen.), 1834 (Confirmation screen.), 1858 (Summary AID.), 1905 (Counterscreen.)]; type: functional
# [8] = system: Streptococcus sp. 'group A'; assay: Streptococcus pyogenes SK(-)GAS viability under kanamycin – luminescence, BacTiterGlo, confirmation, counter-screen for streptokinase expression inhibitor project, dose response (AID 1900); type: functional, organism-based
# [9] = Luminescence Cell-Based Dose Response HTS to Identify Activators of Luciferase Translation or Activity in H4 […] Cells. [Related pubchem assays: 1829 (Project Summary), 1814 (Primary HTS)]; type: functional
# H4 = assay: Luminescence Cell-Based Dose Response HTS to Identify Activators of 5'UTR Stem-Loop Driven Prion Protein mRNA Translation in H4 Neuroglioblastoma Cells. [Related pubchem assays: 1829 (Project Summary), 1814 (Primary HTS)]; type: functional; conditions: Homo sapiens
# [10] = Luminescence Cell-Based Dose Confirmation HTS to Identify Activators of 5'UTR Stem-Loop Driven Alpha-Synuclein mRNA Translation in H4 Neuroglioblastoma Cells. [Related pubchem assays: 1829 (Project Summary), 1814 (Primary HTS)]; type: functional
# [11] = target: T3, Mannose-6-phosphate isomerase (Homo sapiens, UniProt P34949); assay: MPI enzyme activity inhibition – biochemical, fluorescence intensity, coupled assay, primary screen (AID 1209)
# T3 sequence (P34949 whole entry): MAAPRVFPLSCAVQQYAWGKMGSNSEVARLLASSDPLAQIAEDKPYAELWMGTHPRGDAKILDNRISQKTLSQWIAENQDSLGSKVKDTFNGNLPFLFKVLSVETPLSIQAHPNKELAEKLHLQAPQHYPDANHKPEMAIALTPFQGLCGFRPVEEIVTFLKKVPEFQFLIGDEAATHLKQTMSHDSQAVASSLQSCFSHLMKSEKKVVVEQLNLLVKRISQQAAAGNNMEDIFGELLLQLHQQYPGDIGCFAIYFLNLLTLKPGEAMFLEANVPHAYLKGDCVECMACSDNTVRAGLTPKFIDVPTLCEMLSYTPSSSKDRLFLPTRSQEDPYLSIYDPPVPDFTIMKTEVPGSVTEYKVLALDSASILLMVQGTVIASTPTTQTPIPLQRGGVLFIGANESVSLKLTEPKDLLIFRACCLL
# [12] = M. tuberculosis H37Rv growth inhibitors, H37Rv strain (AID 1626); type: functional
# Leucine aminopeptidase = Leucine aminopeptidase (Plasmodium falciparum 3D7, UniProt Q8IL11); assay: P. falciparum M17LAP inhibitors, primary screen, biochemical, fluorogenic H-Leu-NHMec substrate, 1536-well (AID 1619); type: functional
# Estrogen receptor = target: T4, Estrogen receptor (Homo sapiens, UniProt P03372); assay: ERα coactivator recruitment enhancers – biochemical, TR-FRET, ERα LBD, dose response (AID 737)
# T4 sequence (P03372 whole entry): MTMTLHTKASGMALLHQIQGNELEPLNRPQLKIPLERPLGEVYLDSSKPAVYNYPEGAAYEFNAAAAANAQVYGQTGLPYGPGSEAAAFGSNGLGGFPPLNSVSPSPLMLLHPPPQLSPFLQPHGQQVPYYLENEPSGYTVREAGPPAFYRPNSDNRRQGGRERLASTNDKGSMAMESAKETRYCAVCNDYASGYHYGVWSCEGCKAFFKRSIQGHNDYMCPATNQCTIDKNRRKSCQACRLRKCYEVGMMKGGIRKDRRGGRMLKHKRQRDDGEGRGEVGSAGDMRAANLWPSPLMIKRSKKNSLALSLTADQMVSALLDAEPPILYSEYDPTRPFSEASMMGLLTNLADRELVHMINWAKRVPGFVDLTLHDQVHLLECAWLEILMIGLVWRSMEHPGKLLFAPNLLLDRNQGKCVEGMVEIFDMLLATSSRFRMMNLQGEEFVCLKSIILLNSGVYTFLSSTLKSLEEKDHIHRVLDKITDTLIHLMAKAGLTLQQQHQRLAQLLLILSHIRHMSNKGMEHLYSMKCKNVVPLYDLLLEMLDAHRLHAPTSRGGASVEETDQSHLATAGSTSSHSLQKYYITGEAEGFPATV
# [13] = target: Polyadenylate-binding protein 1 (Homo sapiens, UniProt P11940); assay: blockers of PABP interaction with poly(A) – biochemical, fluorescence polarization, […] (AID 2014)
# [14] = target: Eukaryotic translation initiation factor 4H (Homo sapiens, UniProt Q15056); assay: eIF4H binding inhibition – biochemical, uHTS, fluorescence polarization, translation initiation inhibitor project, primary screen (AID 2012)
# [15] = target: T5, Heat shock factor protein 1 (Mus musculus, UniProt P38532); assay: decrease of HSF1-responsive luciferase luminescence – cell-based, NIH3T3, dose retest, confirmation (AID 2382); type: functional;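 further: NIH3T3 fibroblasts with HSF1-driven luciferase reporter stressed by proteasome inhibitor MG132; luminescence from HSF1-driven luciferase expression after 8 hours of MG132 stress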
# T5 sequence (P38532 whole entry): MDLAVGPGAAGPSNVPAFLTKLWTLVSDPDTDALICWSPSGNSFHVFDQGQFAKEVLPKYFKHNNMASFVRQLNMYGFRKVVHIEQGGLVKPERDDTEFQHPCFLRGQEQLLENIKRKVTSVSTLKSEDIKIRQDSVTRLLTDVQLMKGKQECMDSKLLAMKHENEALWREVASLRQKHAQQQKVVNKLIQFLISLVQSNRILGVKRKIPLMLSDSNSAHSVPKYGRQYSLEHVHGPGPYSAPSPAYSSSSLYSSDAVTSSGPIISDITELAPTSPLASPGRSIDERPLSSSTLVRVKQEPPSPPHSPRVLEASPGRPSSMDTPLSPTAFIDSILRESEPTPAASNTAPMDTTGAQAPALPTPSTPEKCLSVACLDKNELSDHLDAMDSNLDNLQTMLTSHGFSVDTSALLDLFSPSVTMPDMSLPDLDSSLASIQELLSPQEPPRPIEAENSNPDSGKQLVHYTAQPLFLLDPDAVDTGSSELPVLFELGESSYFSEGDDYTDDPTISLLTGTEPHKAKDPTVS
# [16] = Luminescence Cell-Based Dose Response HTS to Identify Inhibitors of 5'UTR Stem-Loop Driven Prion Protein mRNA Translation in H4 Neuroglioblastoma Cells. [Related pubchem assays: 1827 (Project Summary), 1813 (Primary HTS)]; type: functional
# [17] = HEK-293T viability loss after treatment – luminescence, T-cell screen hits, cytotoxicity control for TCR NF-kB inhibitor project, dose response (AID 489026); type: functional, cell-based;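 further: cells exposed to compound about 14 hours before the viability readout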
# [18] = alpha-synuclein stem-loop luciferase translation blockers – H4 neuroglioma cells, luminescence, confirmation (AID 1988); type: functional, cell-based
# [19] = Fluorescence Cell-Based Dose Response to Identify Inhibitors of Thrombin Receptor-Activating Peptide SFLLRN-Mediated P-Selectin Induction on Platelets. [Related pubchem assays: 1663 (Primary HTS), 1889 (retest at dose ), 1891 (counterscreen), 1678 (Project Summary)]; type: functional
# [20] = blockers of HIV-1 ZM109 envelope-driven cell-cell fusion – HeLa effector, CEM target cells, luciferase, cherry-pick, dose response (AID 652058); type: functional, cell-based;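 further: luciferase signal from HIV-1 Env mediated cell-cell fusion of effector and target cells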
# [21] = target: T1, Luciferin 4-monooxygenase; assay: inhibition of purified Photinus pyralis luciferase – biochemical, luminescence, dose response (AID 1891)
# [22] = viability loss in CEM21 cells – cell-based, CellTiter-Glo luminescence, cherry-picked, cytotoxicity control for viral fusion inhibitor project, dose response (AID 652042); type: functional;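 further: potency for signal decrease meaning cytotoxicity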
# [23] = off-target signal loss in HeLa-CEM21 co-culture – HeLa F-luc CTL cells, cherry-picked, counter-screen for HIV-1 Env fusion inhibitor project, dose response (AID 652040); type: functional, cell-based;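 further: potency for signal decrease marking cytotoxic or nonspecific inhibition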
# [24] = luciferase reporter signal suppression in cells – H4 neuroglioma cells, luminescence, dose response (AID 1990); type: functional, cell-based
# [25] = blockers of HIV-1 envelope-mediated cell-cell fusion – cherry-pick, dose response (AID 652057); type: functional, cell-based
# [26] = Luminescence Cell-Based Dose Confirmation HTS to Identify Inhibitors of Platelet Dense Granule Release. [Related pubchem assays: 1663 (Primary HTS), 1678 (Summary of Project)]; type: functional
# [27] = HIV-1 AD8 envelope cell-cell fusion blockers – cherry-pick, dose response (AID 652062); type: functional, cell-based;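 further: luciferase signal from cell-cell fusion driven by HIV-1 clade B AD8 Env; potency is for inhibitors of fusion seen as a drop in luminescence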
# [28] = mitochondrial function rescue without frataxin homolog – Friedreich's ataxia, plus single-dose screen, dose response (AID 1465); type: functional;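 further: yeast depleted of Yfh1p frataxin homolog grown on glycerol needing respiration; WST-1 tetrazolium dye reduction as measure of cellular dehydrogenase metabolic activity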
# Large T antigen = Large T antigen (Simian virus 40, UniProt P03070); type: functional, Betapolyomavirus macacae;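 further: Confirmatory-stage PubChem screen for compounds that inhibit SV40 T antigen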
# [29] = viability of uninfected HEp-2 cells – cell-based, HTS, cytotoxicity control for RSV inhibitor project, dose response (AID 2410); type: functional; conditions: human respiratory syncytial virus
# cells [30] = assay: cells
# T1 sequence (P08659 whole entry): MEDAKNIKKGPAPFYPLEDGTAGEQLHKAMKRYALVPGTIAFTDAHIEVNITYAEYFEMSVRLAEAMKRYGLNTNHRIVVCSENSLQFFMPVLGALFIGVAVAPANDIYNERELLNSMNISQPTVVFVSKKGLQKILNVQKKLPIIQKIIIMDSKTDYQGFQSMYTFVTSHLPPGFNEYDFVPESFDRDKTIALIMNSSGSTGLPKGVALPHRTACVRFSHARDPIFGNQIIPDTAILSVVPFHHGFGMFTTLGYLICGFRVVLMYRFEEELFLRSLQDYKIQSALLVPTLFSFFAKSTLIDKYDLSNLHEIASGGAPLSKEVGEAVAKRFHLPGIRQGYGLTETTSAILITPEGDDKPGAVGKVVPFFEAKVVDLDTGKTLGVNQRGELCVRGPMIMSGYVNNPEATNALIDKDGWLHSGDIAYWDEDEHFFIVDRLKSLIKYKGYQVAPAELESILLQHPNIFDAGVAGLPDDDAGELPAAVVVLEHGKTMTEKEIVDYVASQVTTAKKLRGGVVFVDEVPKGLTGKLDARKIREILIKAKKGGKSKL
# Chain of Leucine aminopeptidase (Q8IL11 whole entry, the tested form may be a part): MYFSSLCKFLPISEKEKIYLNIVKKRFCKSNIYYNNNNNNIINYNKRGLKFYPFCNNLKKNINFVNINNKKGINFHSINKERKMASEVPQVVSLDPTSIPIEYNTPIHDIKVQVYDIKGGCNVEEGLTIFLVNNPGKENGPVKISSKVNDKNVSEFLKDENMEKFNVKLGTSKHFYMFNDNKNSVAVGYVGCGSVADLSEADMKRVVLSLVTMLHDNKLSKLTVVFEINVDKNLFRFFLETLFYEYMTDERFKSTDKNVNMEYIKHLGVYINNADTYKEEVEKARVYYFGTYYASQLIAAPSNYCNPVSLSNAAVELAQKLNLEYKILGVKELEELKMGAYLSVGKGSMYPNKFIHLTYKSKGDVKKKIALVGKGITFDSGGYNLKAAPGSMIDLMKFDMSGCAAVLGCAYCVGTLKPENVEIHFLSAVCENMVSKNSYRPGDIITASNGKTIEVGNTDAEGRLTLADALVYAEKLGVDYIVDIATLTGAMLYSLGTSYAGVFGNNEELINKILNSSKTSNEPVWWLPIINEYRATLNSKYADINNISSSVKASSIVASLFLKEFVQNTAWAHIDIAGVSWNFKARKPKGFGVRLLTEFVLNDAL
# Chain of Polyadenylate-binding protein 1 (P11940 whole entry): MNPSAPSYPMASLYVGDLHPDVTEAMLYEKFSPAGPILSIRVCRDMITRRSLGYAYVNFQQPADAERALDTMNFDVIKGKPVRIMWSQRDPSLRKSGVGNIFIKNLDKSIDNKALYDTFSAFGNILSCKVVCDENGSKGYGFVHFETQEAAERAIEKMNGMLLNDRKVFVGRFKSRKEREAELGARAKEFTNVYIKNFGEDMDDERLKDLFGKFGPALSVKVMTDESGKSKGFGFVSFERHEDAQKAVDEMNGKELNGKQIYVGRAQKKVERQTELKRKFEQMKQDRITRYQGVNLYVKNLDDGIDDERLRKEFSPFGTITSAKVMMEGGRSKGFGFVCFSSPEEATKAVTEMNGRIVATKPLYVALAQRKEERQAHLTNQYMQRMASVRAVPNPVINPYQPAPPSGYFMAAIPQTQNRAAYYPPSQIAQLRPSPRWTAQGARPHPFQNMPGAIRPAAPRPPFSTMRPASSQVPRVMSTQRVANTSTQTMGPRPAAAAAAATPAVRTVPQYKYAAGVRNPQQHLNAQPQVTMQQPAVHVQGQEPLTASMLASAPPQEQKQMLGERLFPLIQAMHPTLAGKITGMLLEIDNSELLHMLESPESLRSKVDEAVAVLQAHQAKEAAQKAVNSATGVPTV
# Chain of Large T antigen (P03070 whole entry): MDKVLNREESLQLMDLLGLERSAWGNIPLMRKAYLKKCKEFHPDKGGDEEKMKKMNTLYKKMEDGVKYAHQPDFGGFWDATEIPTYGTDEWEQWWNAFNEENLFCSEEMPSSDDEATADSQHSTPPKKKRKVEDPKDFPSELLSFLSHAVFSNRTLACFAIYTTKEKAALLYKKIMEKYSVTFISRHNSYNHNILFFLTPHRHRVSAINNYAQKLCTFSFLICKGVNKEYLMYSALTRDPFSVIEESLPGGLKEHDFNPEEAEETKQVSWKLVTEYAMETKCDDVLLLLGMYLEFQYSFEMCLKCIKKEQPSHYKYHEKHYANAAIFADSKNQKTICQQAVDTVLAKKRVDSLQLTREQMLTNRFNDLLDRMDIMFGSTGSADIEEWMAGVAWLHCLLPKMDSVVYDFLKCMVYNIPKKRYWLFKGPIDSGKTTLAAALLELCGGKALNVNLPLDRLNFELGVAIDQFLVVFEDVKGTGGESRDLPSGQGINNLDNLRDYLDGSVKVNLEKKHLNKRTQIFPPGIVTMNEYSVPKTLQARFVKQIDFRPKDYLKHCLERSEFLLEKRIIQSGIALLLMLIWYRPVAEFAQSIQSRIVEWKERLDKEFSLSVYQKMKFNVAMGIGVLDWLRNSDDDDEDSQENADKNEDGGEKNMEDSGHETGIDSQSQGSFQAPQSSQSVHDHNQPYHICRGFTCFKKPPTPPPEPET
smiles,measurement,setting,value
CCCOc1ccc(-c2nnc(-c3cccs3)o2)cc1,EC50,HT-1080,> 50 µM (not active)
same,EC50,[1],7.29 µM (active)
COc1ccc(C(=O)N/N=C/c2cc(Br)ccc2O)cc1OC,EC50,[2],3.76 µM (active)
same,EC50,cells [3],> 350 µM (not active)
same,AC50,INS1,1.97 µM (active)
same,EC50,cells [4],11.3 µM (active)
same,AC50,[5],4.76 µM (active)
same,EC50,Streptococcus,5.78 µM (active)
same,EC50,[6],> 60 µM (not active)
same,IC50,[7],12.2 µM (not active)
same,EC50,[8],0.959 µM (active)
Cc1cc(N=C(S)Nc2ccc(C)c(Cl)c2)[nH]n1,EC50,[9],76.2 µM (active)
same,EC50,H4,14.8 µM (active)
same,EC50,[10],8.11 µM (active)
same,IC50,[11],> 50 µM (not active)
CC(=O)Nc1ccc(NC(=O)c2ccc(C3SCC(=O)N3CCc3ccccc3)cc2)cc1 (stereo not drawn),IC50,[12],> 100 µM (active)
CC(=O)Nc1ccc(Nc2cc(C)nc3c(-c4ccccc4)c(C)nn23)cc1,IC50,[12],> 100 µM (active)
Nc1[nH]ncc1-c1ccc(Cl)cc1,IC50,Leucine aminopeptidase,38.2 µM (active)
Cc1nn(-c2ccccc2)c2sc(C(=O)c3c(N)n(C)c(=O)n(C)c3=O)cc12,EC50,Estrogen receptor,12.6 µM (active)
COc1ccc2oc(C)c(C(=O)NN)c2c1,IC50,Leucine aminopeptidase,26.6 µM (active)
CCn1/c(=N/C(=O)c2ccc(N3C(=O)CCC3=O)cc2)sc2c(OC)ccc(OC)c21,IC50,[13],> 100 µM (inactive)
same,IC50,[14],14.7 µM (active)
same,EC50,Estrogen receptor,7.94 µM (active)
COC(=O)c1nn(-c2ccc3c(c2)CCN3C(C)=O)cc1O,EC50,HT-1080,> 50 µM (not active)
same,EC50,[15],0.665 µM (active)
same,EC50,[16],0.29 µM (active)
same,IC50,[17],> 80 µM (inactive)
same,EC50,[1],> 100 µM (not active)
same,EC50,[18],1.78 µM (active)
same,EC50,[19],< 100 µM (not active)
same,AC50,[20],18.5 µM (active)
same,EC50,[21],15.8 µM (active)
same,AC50,[22],45.5 µM (active)
same,AC50,[23],3.07 µM (active)
same,EC50,[24],2.45 µM (inconclusive)
same,AC50,[25],5.72 µM (active)
same,IC50,[7],> 39.8 µM (not active)
same,EC50,[26],1.06 µM (active)
same,AC50,[27],6.43 µM (active)
N#C/C(=C\c1ccc(N2CCOCC2)o1)C(=O)Nc1ccc(O)cc1,EC50,[28],> 100 µM (active)
same,IC50,Large T antigen,15.2 µM (active)
COc1cccc(C(=O)Nc2cc(NC(=O)c3cccs3)ccc2C)c1OC,CC50,[29],38.2 µM (active)
same,IC50,cells [30],48.3 µM (active)
